Where two headings read alike, the source gives them in different places.

The test system of data set [1] is naproxen induced gastric lesions. The data set can be described thus: Rat gastric lesion procedure (naproxen-induced). As to conditions: co-dosed with naproxen 40 mg/kg. Type of data set: in vivo. How it is done:
Gastric lesions in rat can be induced by ingestion of a non-steroidal anti-inflammatory drug (NSAID) such as naproxen. This effect is apparent with 4 to 6 hours of administration. The therapeutic effect of two different agents on preventing NSAID-induced gastric lesions first as a mono-therapy and then as a combination therapy using a fractional dose approach to test for additivity. The two agents tested include 1) 3-[3-tert-Butylsulfanyl-1-[4-(6-ethoxy-pyridin-3-yl)-benzyl]-5-(pyridin-2-ylmethoxy)-1H-indol-2-yl]-2,2-dimethyl-propionic acid (prepared according to the procedures described in US patent publication no. 2007/0105866; see Compound 2-94), a 5-lipoxygenase activating protein (FLAP) inhibitor and 2) isosorbide mononitrate (a nitric oxide donor).
Procedures: Gastric lesions were induced in 24-hour fasted male Sprague-Dawley rats (weighing 200-300 grams) by administering a single oral dose of naproxen (40 mg/kg), in the mono-therapy phase of the study Compound 2-94 was prepared at 1, 10 and 30 mg/kg and was co-dosed with naproxen. Separately, isosorbide mononitrate was prepared at 3, 10, 30 and 100 mg/kg and was co-dosed with naproxen. The ED50 (defined as the dose to produce the half maximal effect) from this phase of the experiment was used to calculate doses for the combination therapy phase of the study in which Compound 2-94 and isosorbide mononitrate were formulated together and co-dosed with Naproxen. Fractional doses tested include; 2, 1, ½ and ¼ of the ED50 values. In all conditions, four hours alter dosing, rats were anesthetized with inhaled isoflurane and the stomachs removed and cut along the lesser curvature and rinsed thoroughly of any contents using tap water. Each stomach was then pinned down flat with the mucosal layer side up and a digit image captured at an exposure of 10×. These images were then used to determine the total lesion area in mm^2. A Lesion Index (LI) was calculated for each individual stomach by the formula:
LI=[lesion area (mm^2)/total stomach area (mm^2)]×100
Individual drug effects were then determined by calculating the percent inhibition of LI for each dose group relative to the naproxen-alone group using the formula:
% inhibition=100−[LItreatment/LIcontrol(naproxen)×100]
(ED50 of Compound 2-94 with isosorbide mononitrate)/(ED50 ft for Compound 2-94 given alone)+(ED50 of isosorbide mononitrate with Compound 2-94)/(ED50 for isosorbide given alone).
The fractional value indicates what proportion of the single ED50 value was accounted for by the corresponding ED50 value of the combination.

For data set [2] the following is noted: intravenous, cited from earlier work.
The mark [3] stands for this setting: Compound 2-94 and isosorbide mononitrate formulated together, read-out: fraction dose ED50 (dose of the component in the combination).
Setting [4] is: oral, 4 h after dosing, estimated, read-out: ED50, inhibition of naproxen induced gastric lesions (mono-therapy).

In the case of `CCOc1ccc(-c2ccc(Cn3c(CC(C)(C)C(=O)O)c(SC(C)(C)C)c4cc(OCc5ccccn5)ccc43)cc2)cn1` [Compound 2-94, 3-[3-tert-Butylsulfanyl-1-[4-(6-ethoxy-pyridin-3-yl)-benzyl]-5-(pyridin-2-ylmethoxy)-1H-indol-2-yl]-2,2-dimethyl-propionic acid], the ED50 in data set [1] (setting [3]) was 2.5 mg/kg; in data set [1] (setting [4]), 5 mg/kg.
The matching figures for `O=[N+]([O-])O[C@@H]1CO[C@H]2[C@@H]1OC[C@@H]2O` [isosorbide mononitrate]: 7.5 mg/kg and 15 mg/kg.
Regarding nitroprusside, in data set [2] (15 patients), the “decrease of pulmonary vascular resistance (PVR), mean” value is reported as 32%. Moreover, the “mean PAP after treatment” value in data set [2] (15 patients, decreased from 29.6) is given as 24.2 mm Hg. In addition, the “mean systemic arterial pressure after treatment” value in data set [2] (15 patients, reduced from 89.6, unacceptably low level) is given as 70 mm Hg. Also, in data set [2] (by increasing QVA/QT), the “effect on pulmonary gas exchange” value is recorded as “markedly impairs pulmonary gas exchange”.

By ED50 is commonly meant the dose that gives a 50% effect, or the effect in half of the subjects.

Source of the values: patent US20100068301A1, “COMPOSITIONS AND TREATMENTS COMPRISING 5-LIPOXYGENASE-ACTIVATING PROTEIN INHIBITORS AND NITRIC OXIDE MODULATORS” (priority 2006, published 2010).
